Measured values as given in patent publication US5569649A, “Anti-inflammatory treatment method” (Phytopharm (NA) N.V., priority 1994, dated 1996).
Entries after “also recorded” stand apart in the source; their conditions may differ.

How the values were obtained:
[1] = Rooperol metabolites in serum after oral hypoxoside (HPLC); type: in vivo, human; conditions: for presence in serum (HPLC peak): 2 h after oral hypoxoside 1 g, one human volunteer
Protocol: The analytical column (4.6×250 mm) was packed with end-capped C8-bonded silica of 5 μm regular particle size (Whatman, Maidstone, England), while a guard column (2.1×75 mm) was packed with pellicular C18-bonded silica (Whatman). An in-line extraction pre-column (2.1×30 mm) was packed with preparative grade C18-bonded silica, 40 μm particle size (Analytichem International, Harbor City, Calif.).
Operating conditions involved a linear solvent gradient programmed at a flow rate of 1.5 ml/min starting with mobile phase A (0.05M KH2 PO4) to which 10% mobile phase B (acetonitrile-isopropanol, 80:20 v/v) was added after 0.01 min. This mixture was maintained for 1 minute after which a linear gradient of mobile phases A and B was begun, ending at 70% B after 16 minutes. The column temperature was maintained at 50° C.
The in-line extraction pre-column was loaded with sample (dissolved in 50 μl ethanol or in up to 200 μl of mobile phase A in the case of purified compounds; or a 200 μl aliquot of serum or urine from a human subject) and made up to 500 μl with an aqueous solution containing 8M guanidinium chloride and 1M ammonium sulfate. Blood samples were first converted to sera prior to analysis. The extraction column was flushed before and after sample introduction with 500 μl of aqueous 0.5M ammonium sulfate. The solutes trapped on the in-line extraction column were then eluted onto the analytical column by mobile phase after column switching and initiation of the analysis.
The detector was programmed to monitor the eluant at 260 nm and also to record absorption spectra from 200-400 nm.

[2] = Hypoxoside metabolites from urine after oral hypoxoside (HPLC); type: in vivo, human; conditions: urine over 24 h after oral hypoxoside 1 g
Protocol: Example 7 describes the characterization of the rooperol metabolites which were excreted in the urine of the same subject. Urine from the same volunteer as above was collected over 24 hours following administration of the hypoxoside. The collected sample was filtered and purified by passage through a column bed of C18-bonded silica.
The urine from the volunteer in Example 6 was collected over the first 24 hours following administration of hypoxoside and then processed as follows. C18-bonded silica sorbent material (200 g, 40 μm) was pre-treated with methanol and water via a column bed. Filtered urine (5 l) was passed through the sorbent bed, followed by elution in sequence with water (400 ml), aqueous methanol (10% v/v, 400 ml), aqueous methanol (30% v/v, 800 ml) and finally with methanol (400 ml) and water (400 ml). The aqueous methanol fraction (30% v/v, 800 ml) was diluted with water (1600 ml) and again passed through the sorbent bed which was then eluted with water (400 ml) and finally with methanol (400 ml). The final methanol solution was evaporated under vacuum at 50° C. to an aqueous residue which was lyophilized to yield 1 g of a mixture of hypoxoside metabolites and endogenous urine components.
A suitable volume of filtered aqueous solution of this residue (10 mg/ml) was injected onto the in-line pre-column of the analytical HPLC system (Example 5) such that 3 fractions designated A, B, and C having the same retention times as the corresponding peaks observed in serum (Example 6) were collected at the column outlet (see FIG. 4). These fractions were rendered free of mobile phase buffer salts by standard reverse phase sorption technique and lyophilized to dryness.

[3] = Pharmacokinetics of hypoxoside metabolites, multiple-dose study; type: in vivo, human; conditions: 800 mg H. rooperii methanol-extract 3 times daily for 9 days
Protocol: In a random, multiple-dose study, 6 subjects received 800 mg of H. rooperii methanol-extract 3 times daily for 9 days, and blood samples were collected daily for 12 days (with the exception that no samples were collected on day 11).

[4] = HPLC of fecal specimen after oral hypoxoside; type: in vivo, human; conditions: after oral hypoxoside 1 g
Protocol: In addition, a fecal specimen was also obtained from the subject and, following extraction, was analyzed by HPLC as above (FIG. 5).

[5] = system: IL-1β production by lipopolysaccharide-stimulated human peripheral blood mononuclear cells; test: Inhibition of IL-1β production by LPS-stimulated human PBMCs (ELISA); type: cell-based; conditions: for inhibition of IL-1β production, in words: activated human mononuclear cells, 1-10 μM rooperol
Protocol: (§1) In the study detailed in Example 4, cultured PBMCs enriched in monocytes were stimulated with lipopolysaccharide (20 μg/ml) in the presence and absence of rooperol at concentrations of 1-10 μM. After overnight incubation, the cells were collected and lysed, and the concentrations of TNF-α and IL-1β were measured by ELISA.
(§2) Peripheral blood mononuclear cells (PBMs) from normal human donors were separated on a Ficoll-Paque gradient and enriched in monocytes by adherence. PBMs were cultured in 12-well plates (2×10^6 cells/ml/well) in RPMI 1640 supplemented with 5% fetal calf serum.
(§3) Cultures were stimulated with lipopolysaccharide (LPS, 20 ug/ml), with or without rooperol at concentrations of 1, 2, 5, and 10 μM, and incubated overnight in 5% CO2. The cells were pelleted, resuspended in RPMI medium, and freeze-thawed five times to produce lysates. All samples were stored at -20° C. until cytokine concentrations were determined by commercial ELISA assays.

[6] = Phase I dosing: hypoxoside and metabolites in serum; type: in vivo; conditions: oral hypoxoside preparation 1.6, 2.4 and 3.2 g, 20 human subjects
Excerpt: In a Phase I dose-ranging and toxicity study, 20 human subjects were given oral doses of a hypoxoside preparation obtained by the methanol extraction procedure described in Example 1. The dosages were 1.6, 2.4, and 3.2 g. Following administration of the hypoxoside preparation, blood samples were collected periodically from the subjects for measurement of hypoxoside and its metabolites. The samples were converted to sera and processed as described in Example 5. The only hypoxoside/rooperol compounds detected were the sulfate and glucuronide metabolites of rooperol noted in Examples 6 and 7.

[7] = system: TNF-α production by lipopolysaccharide-stimulated human peripheral blood mononuclear cells; test: Inhibition of TNF-α production by LPS-stimulated human PBMCs (ELISA); type: cell-based; conditions: for inhibition of TNF-α production, in words: LPS-stimulated human PBMCs, 1-10 μM rooperol
Protocol: as §1, §2, §3

[8] = Anti-inflammatory activity (general statement)
[9] = Susceptibility to air oxidation; type: physicochemical

| SMILES | presence in serum (HPLC peak) [1] | presence in urine (HPLC peak) [2] | relative abundance of metabolite in serum [3] | presence in fecal specimen (HPLC peak) [4] | toxicity of metabolites, in words ([1]; oral hypoxoside, humans) | uptake into the bloodstream ([1]; oral hypoxoside, humans) | inhibition of IL-1β production, in words [5] | detection in serum [6] | inhibition of TNF-α production, in words [7] | anti-inflammatory activity [8] | IC50 ([5]; Homo sapiens, PBMC, LPS 20 μg/ml, overnight incubation, FIG. 2B, read-out: half-maximal inhibition of IL-1β production) | susceptibility to air oxidation [9] | inhibition of TNF-α production ([7]; 10 μM rooperol, LPS 20 μg/ml) | IC50 ([7]; Homo sapiens, PBMC, LPS 20 μg/ml, overnight incubation, FIG. 2A, read-out: half-maximal inhibition of TNF-α production) |
| --- | --- | --- | --- | --- | --- | --- | --- | --- | --- | --- | --- | --- | --- | --- |
| O=C(O)[C@H]1O[C@@H](Oc2ccc(C#CC/C=C/c3ccc(O[C@@H]4O[C@H](C(=O)O)[C@@H](O)[C@H](O)[C@H]4O)c(O)c3)cc2O)[C@H](O)[C@@H](O)[C@@H]1O [A, rooperol 4,4'-diglucuronide] | appearance of three new peaks | found in the urine sample | minor metabolites |  |  |  |  |  |  |  |  |  |  |  |
| O=S(=O)(O)Oc1ccc(C#CC/C=C/c2ccc(OS(=O)(=O)O)c(O)c2)cc1O [C, rooperol 4,4'-disulfate] | appearance of three new peaks | found in the urine sample | minor metabolites |  |  |  |  |  |  |  |  |  |  |  |
| OC[C@H]1O[C@@H](Oc2ccc(C#CC/C=C/c3ccc(O[C@@H]4O[C@H](CO)[C@@H](O)[C@H](O)[C@H]4O)c(O)c3)cc2O)[C@H](O)[C@@H](O)[C@@H]1O [hypoxoside] | None of these peaks corresponded to rooperol or hypoxoside | None of the other urinary peaks corresponded to rooperol or hypoxoside |  | No peaks were detectable | metabolized to non-toxic derivatives | taken up rapidly into the bloodstream | inactive | Neither hypoxoside nor rooperol could be detected | inactive |  |  |  |  |  |
| Oc1ccc(C#CC/C=C/c2ccc(O)c(O)c2)cc1O [rooperol] | None of these peaks corresponded to rooperol or hypoxoside | None of the other urinary peaks corresponded to rooperol or hypoxoside |  | Only one major peak was observed, with a retention time corresponding to that of rooperol |  |  | dose-dependent inhibition; also recorded: potent inhibitor | Neither hypoxoside nor rooperol could be detected | dose-dependent inhibition; also recorded: potent inhibitor | significant anti-inflammatory activity | 1000 to 2000 nM | susceptible to air oxidation | nearly complete inhibition | 1000 to 2000 nM |
